Molecular target: mGluR4 (UniProt Q14833)
Assay: mGluR4 potentiation assay: increase in response to an EC20 concentration of agonist (species not given)
Assay type: cell-based
Conditions: EC50 for potentiation of mGluR4; table does not state human or rat
Summary of the method: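 Human mGluR4 was expressed in CHO cells read with a Ca2+-sensitive dye; rat mGluR4 was co-expressed with GIRK in […] read by thallium flux. Potentiation is the rise over agonist-alone response, with EC50 and maximal potentiation from non-linear fits.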

EC50 [nM]	Structure (SMILES)
1260	Cn1ncc2ncc(Nc3n[nH]c4cccnc34)cc21 [Example 147, N-(1-methyl-1H-pyrazolo[4,3-b]pyridin-6-yl)-1H-pyrazolo[4,3-b]pyridin-3-amine]
3530	Cn1ncc2ncc(Nc3n[nH]c4nccnc34)cc21 [Example 148, N-(1-methyl-1H-pyrazolo[4,3-b]pyridin-6-yl)-1H-pyrazolo[3,4-b]pyrazin-3-amine]
> 10000	c1cnc2c(Nc3cnc4cnn(CC5CCC5)c4c3)n[nH]c2n1 [Example 149, N-(1-(cyclobutylmethyl)-1H-pyrazolo[4,3-b]pyridin-6-yl)-1H-pyrazolo[3,4-b]pyrazin-3-amine]
> 10000	c1nc2cnn(CC3CCC3)c2cc1Nc1n[nH]c2c1CCCC2 [Example 150, 1-(cyclobutylmethyl)-N-(4,5,6,7-tetrahydro-1H-indazol-3-yl)-1H-pyrazolo[4,3-b]pyridin-6-amine]
582	Cn1ncc2cc(Nc3n[nH]c4cccnc34)cnc21 [Example 151, N-(1-methyl-1H-pyrazolo[3,4-b]pyridin-5-yl)-1H-pyrazolo[4,3-b]pyridin-3-amine]
371	CC(C)n1ncc2cc(Nc3n[nH]c4cccnc34)cnc21 [Example 152, N-(1-isopropyl-1H-pyrazolo[3,4-b]pyridin-5-yl)-1H-pyrazolo[4,3-b]pyridin-3-amine]
413	CC(C)n1ncc2cc(Nc3n[nH]c4nccnc34)cnc21 [Example 153, N-(1-isopropyl-1H-pyrazolo[3,4-b]pyridin-5-yl)-1H-pyrazolo[3,4-b]pyrazin-3-amine]
170	Cc1nn(CCC(C)C)c2ncc(Nc3n[nH]c4cccnc34)cc12 [Example 154, 1-isopentyl-3-methyl-N-(1H-pyrazolo[4,3-b]pyridin-3-yl)pyrazolo[3,4-b]pyridin-5-amine]
160	CC[C@H](C)Cn1nc(C)c2cc(Nc3n[nH]c4cccnc34)cnc21 [Example 155, 3-methyl-1-[(2S)-2-methylbutyl]-N-(1H-pyrazolo[4,3-b]pyridin-3-yl)pyrazolo[3,4-b]pyridin-5-amine]
110	Cc1nn(CC2CCC2)c2ncc(Nc3n[nH]c4cccnc34)cc12 [Example 156, 1-(cyclobutylmethyl)-3-methyl-N-(1H-pyrazolo[4,3-b]pyridin-3-yl)pyrazolo[3,4-b]pyridin-5-amine]
200	Cc1nn(C2CCC2)c2ncc(Nc3n[nH]c4cccnc34)cc12 [Example 158, 1-cyclobutyl-3-methyl-N-(1H-pyrazolo[4,3-b]pyridin-3-yl)pyrazolo[3,4-b]pyridin-5-amine]
3940	Cn1nc(C(=O)NCCS(C)(=O)=O)c2ccc(Nc3n[nH]c4cccnc34)cc21 [Example 159, 1-methyl-N-(2-methylsulfonylethyl)-6-(1H-pyrazolo[4,3-b]pyridin-3-ylamino)indazole-3-carboxamide]
888	Cn1nc(C(=O)N2CCCC(F)(F)C2)c2ccc(Nc3n[nH]c4cccnc34)cc21 [Example 160, (3,3-difluoro-1-piperidyl)-[1-methyl-6-(1H-pyrazolo[4,3-b]pyridin-3-ylamino)indazol-3-yl]methanone]
> 10000	Cn1nc(C(=O)N2CCC(C(N)=O)CC2)c2ccc(Nc3n[nH]c4cccnc34)cc21 [Example 161, 1-[1-methyl-6-(1H-pyrazolo[4,3-b]pyridin-3-ylamino)indazole-3-carbonyl]piperidine-4-carboxamide]
498	Cn1nc(C(=O)N2CCC(F)(F)CC2)c2ccc(Nc3n[nH]c4cccnc34)cc21 [Example 162, (4,4-difluoro-1-piperidyl)-[1-methyl-6-(1H-pyrazolo[4,3-b]pyridin-3-ylamino)indazol-3-yl]methanone]
2210	Cn1nc(C(=O)N2CCCC(F)C2)c2ccc(Nc3n[nH]c4cccnc34)cc21 (stereo not shown) [Example 163, (3-fluoro-1-piperidyl)-[1-methyl-6-(1H-pyrazolo[4,3-b]pyridin-3-ylamino)indazol-3-yl]methanone]
1110	Cn1nc(C(=O)N2CCC(F)CC2)c2ccc(Nc3n[nH]c4cccnc34)cc21 [Example 164, (4-fluoro-1-piperidyl)-[1-methyl-6-(1H-pyrazolo[4,3-b]pyridin-3-ylamino)indazol-3-yl]methanone]
801	Cn1nc(C(=O)N2CCS(=O)(=O)CC2)c2ccc(Nc3n[nH]c4cccnc34)cc21 [Example 165, (1,1-dioxo-1,4-thiazinan-4-yl)-[1-methyl-6-(1H-pyrazolo[4,3-b]pyridin-3-ylamino)indazol-3-yl]methanone]
> 10000	CN1CCN(C(=O)c2nn(C)c3cc(Nc4n[nH]c5cccnc45)ccc23)CC1 [Example 166, (4-methylpiperazin-1-yl)-[1-methyl-6-(1H-pyrazolo[4,3-b]pyridin-3-ylamino)indazol-3-yl]methanone]
1580	Cn1nc(C(=O)N2CCOCC2)c2ccc(Nc3n[nH]c4cccnc34)cc21 [Example 167, [1-methyl-6-(1H-pyrazolo[4,3-b]pyridin-3-ylamino)indazol-3-yl]-morpholino-methanone]

EC50 [nM]	Structure (SMILES)
903	Cn1nc(C(=O)N2CC[C@@H](F)C2)c2ccc(Nc3n[nH]c4cccnc34)cc21 [Example 168, [(3R)-3-fluoropyrrolidin-1-yl]-[1-methyl-6-(1H-pyrazolo[4,3-b]pyridin-3-ylamino)indazol-3-yl]methanone]
4610	Cn1nc(C(=O)NCCCS(C)(=O)=O)c2ccc(Nc3n[nH]c4cccnc34)cc21 [Example 169, 1-methyl-N-(3-methylsulfonylpropyl)-6-(1H-pyrazolo[4,3-b]pyridin-3-ylamino)indazole-3-carboxamide]
2340	Cn1nc(C(=O)N2CCC(S(C)(=O)=O)C2)c2ccc(Nc3n[nH]c4cccnc34)cc21 (stereo not shown) [Example 170, [1-methyl-6-(1H-pyrazolo[4,3-b]pyridin-3-ylamino)indazol-3-yl]-(3-methylsulfonylpyrrolidin-1-yl)methanone]
765	Cn1nc(C(=O)N2CC[C@H](F)C2)c2ccc(Nc3n[nH]c4cccnc34)cc21 [Example 171, [(3S)-3-fluoropyrrolidin-1-yl]-[1-methyl-6-(1H-pyrazolo[4,3-b]pyridin-3-ylamino)indazol-3-yl]methanone]
289	Cn1nc(C(=O)N2CCC(F)(F)C2)c2ccc(Nc3n[nH]c4cccnc34)cc21 [Example 172, (3,3-difluoropyrrolidin-1-yl)-[1-methyl-6-(1H-pyrazolo[4,3-b]pyridin-3-ylamino)indazol-3-yl]methanone]
825	Cn1nc(C(=O)N2CCCC2)c2ccc(Nc3n[nH]c4cccnc34)cc21 [Example 173, [1-methyl-6-(1H-pyrazolo[4,3-b]pyridin-3-ylamino)indazol-3-yl]-pyrrolidin-1-yl-methanone]
116	Cn1nc(C(=O)NC2CC(F)(F)C2)c2ccc(Nc3n[nH]c4cccnc34)cc21 [Example 174]
794	Cn1nc(C(=O)NC2CC(F)C2)c2ccc(Nc3n[nH]c4cccnc34)cc21 (stereo not shown) [Example 175, N-(3-fluorocyclobutyl)-1-methyl-6-(1H-pyrazolo[4,3-b]pyridin-3-ylamino)indazole-3-carboxamide]
653	Cn1nc(C(=O)NC2CCC2)c2ccc(Nc3n[nH]c4cccnc34)cc21 [Example 176, N-cyclobutyl-1-methyl-6-(1H-pyrazolo[4,3-b]pyridin-3-ylamino)indazole-3-carboxamide]
467	Cn1nc(C#N)c2ccc(Nc3n[nH]c4cccnc34)cc21 [Example 177, 1-methyl-6-(1H-pyrazolo[4,3-b]pyridin-3-ylamino)indazole-3-carbonitrile]
4180	Cc1cncc(-c2nn(C)c3cc(Nc4n[nH]c5cccnc45)ccc23)c1 [Example 178, N-(1-methyl-3-(5-methylpyridin-3-yl)-1H-indazol-6-yl)-1H-pyrazolo[4,3-b]pyridin-3-amine]
2720	Cn1nc(-c2ccc(=O)[nH]c2)c2ccc(Nc3n[nH]c4cccnc34)cc21 [Example 179, 5-[1-methyl-6-(1H-pyrazolo[4,3-b]pyridin-3-ylamino)indazol-3-yl]-1H-pyridin-2-one]
> 10000	COc1ccc(-c2nn(C)c3cc(Nc4n[nH]c5cccnc45)ccc23)cn1 [Example 180, N-[3-(6-methoxy-3-pyridyl)-1-methyl-indazol-6-yl]-1H-pyrazolo[4,3-b]pyridin-3-amine]
87	Cn1nc(OCC2CCCCO2)c2ccc(Nc3n[nH]c4cccnc34)cc21 (stereo not shown) [Example 181, N-(1-methyl-3-((tetrahydro-2H-pyran-2-yl)methoxy)-1H-indazol-6-yl)-1H-pyrazolo[4,3-b]pyridin-3-amine]
198	Cn1nc(OCC(F)(F)F)c2ccc(Nc3n[nH]c4cccnc34)cc21 [Example 182, N-(1-methyl-3-(2,2,2-trifluoroethoxy)-1H-indazol-6-yl)-1H-pyrazolo[4,3-b]pyridin-3-amine]
224	Cc1cc(COc2nn(C)c3cc(Nc4n[nH]c5cccnc45)ccc23)no1 [Example 183, N-(1-methyl-3-((5-methylisoxazol-3-yl)methoxy)-1H-indazol-6-yl)-1H-pyrazolo[4,3-b]pyridin-3-amine]
83	Cn1nc(OCc2cccnc2)c2ccc(Nc3n[nH]c4cccnc34)cc21 [Example 184, N-(1-methyl-3-(pyridin-3-ylmethoxy)-1H-indazol-6-yl)-1H-pyrazolo[4,3-b]pyridin-3-amine]
164	Cn1nc(OCC2CC2)c2ccc(Nc3n[nH]c4cccnc34)cc21 [Example 185, N-(3-(cyclopropylmethoxy)-1-methyl-1H-indazol-6-yl)-1H-pyrazolo[4,3-b]pyridin-3-amine]
1880	Cn1nc(S(C)(=O)=O)c2ccc(Nc3n[nH]c4cccnc34)cc21 [Example 186, N-(1-methyl-3-(methylsulfonyl)-1H-indazol-6-yl)-1H-pyrazolo[4,3-b]pyridin-3-amine]
2360	Cn1nc(S(C)(=O)=O)c2ccc(Nc3n[nH]c4nccnc34)cc21 [Example 187, N-(1-methyl-3-(methylsulfonyl)-1H-indazol-6-yl)-1H-pyrazolo[3,4-b]pyrazin-3-amine]
